The source made the active and inactive calls.
What was measured:
[1] = target: Protein-tyrosine kinase 2-beta (Homo sapiens, UniProt Q14289);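 note: potency of inhibitors of PYK2 kinase phosphorylation of poly-GT substrate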
[2] = target: T1, Mannose-6-phosphate isomerase (Homo sapiens, UniProt P34949); experiment: inhibitors of human PMI, primary screen, biochemical, fluorescence intensity, coupled assay (AID 1209)
T1 sequence (P34949 whole entry): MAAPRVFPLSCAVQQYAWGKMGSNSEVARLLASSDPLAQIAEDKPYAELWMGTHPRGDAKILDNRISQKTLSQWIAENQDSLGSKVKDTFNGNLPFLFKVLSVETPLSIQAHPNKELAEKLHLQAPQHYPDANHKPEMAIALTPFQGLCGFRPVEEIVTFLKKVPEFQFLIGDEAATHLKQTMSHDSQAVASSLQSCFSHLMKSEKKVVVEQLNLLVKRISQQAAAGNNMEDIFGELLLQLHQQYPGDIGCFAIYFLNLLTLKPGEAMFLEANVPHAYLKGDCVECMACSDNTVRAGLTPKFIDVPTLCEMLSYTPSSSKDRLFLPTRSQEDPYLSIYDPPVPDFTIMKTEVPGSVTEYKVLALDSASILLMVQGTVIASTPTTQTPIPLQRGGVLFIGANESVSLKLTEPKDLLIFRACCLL

[3] = target: DNA dC->dU-editing enzyme APOBEC-3A (Homo sapiens, UniProt P31941); experiment: Dose Response confirmation of small molecule APOBEC3A DNA Deaminase Inhibitors via a fluorescence-based single-stranded DNA deaminase assay. [Related pubchem assays (depositor defined):AID493011, AID493024]; type: functional
DNA dC->dU-editing enzyme APOBEC-3A, sequence (P31941 whole entry): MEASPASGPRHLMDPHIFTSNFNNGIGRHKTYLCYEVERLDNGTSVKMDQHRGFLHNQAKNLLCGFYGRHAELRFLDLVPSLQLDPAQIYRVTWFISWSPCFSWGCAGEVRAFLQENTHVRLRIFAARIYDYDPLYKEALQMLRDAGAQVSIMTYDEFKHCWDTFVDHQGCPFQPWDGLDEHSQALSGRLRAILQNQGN

[4] = target: DNA dC->dU-editing enzyme APOBEC-3G (Homo sapiens, UniProt Q9HC16); type: functional;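 note: Dose-response counterscreen measuring inhibition of APOBEC3G DNA deaminase activity, run while confirming APOBEC3A inhibitors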
DNA dC->dU-editing enzyme APOBEC-3G, sequence (Q9HC16 whole entry): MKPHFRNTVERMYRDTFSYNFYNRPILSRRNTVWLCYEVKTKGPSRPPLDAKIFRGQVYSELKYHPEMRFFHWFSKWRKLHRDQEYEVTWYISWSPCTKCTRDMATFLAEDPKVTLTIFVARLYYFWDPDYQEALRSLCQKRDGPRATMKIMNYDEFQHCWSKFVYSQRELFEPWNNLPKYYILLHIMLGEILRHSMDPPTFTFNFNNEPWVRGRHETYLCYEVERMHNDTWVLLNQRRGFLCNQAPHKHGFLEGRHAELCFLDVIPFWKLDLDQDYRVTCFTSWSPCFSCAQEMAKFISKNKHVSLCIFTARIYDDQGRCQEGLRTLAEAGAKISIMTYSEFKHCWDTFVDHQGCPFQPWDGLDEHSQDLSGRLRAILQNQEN

[5] = Luminescent dose response cell-based high throughput screening assay for inhibitors of the Janus kinase 2 mutant JAK2V617F. [Related pubchem assays: 1446 (Primary screen.), 1521 (Confirmation assay.), 1486 (Counter screen.)]; type: functional
[6] = target: T2, Heat shock factor protein 1 (Mus musculus, UniProt P38532); experiment: HSF1 potentiators in luciferase reporter cells, confirmation, cell-based, NIH3T3, luminescence, dose retest (AID 435004); type: functional;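 note: stress induced by proteasome inhibitor MG132 added 30 min after compound; luciferase reporter driven by HSF1 response element in NIH3T3 cells; actives raise luminescence as potentiators of the MG132 stress response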
T2 sequence (P38532 whole entry): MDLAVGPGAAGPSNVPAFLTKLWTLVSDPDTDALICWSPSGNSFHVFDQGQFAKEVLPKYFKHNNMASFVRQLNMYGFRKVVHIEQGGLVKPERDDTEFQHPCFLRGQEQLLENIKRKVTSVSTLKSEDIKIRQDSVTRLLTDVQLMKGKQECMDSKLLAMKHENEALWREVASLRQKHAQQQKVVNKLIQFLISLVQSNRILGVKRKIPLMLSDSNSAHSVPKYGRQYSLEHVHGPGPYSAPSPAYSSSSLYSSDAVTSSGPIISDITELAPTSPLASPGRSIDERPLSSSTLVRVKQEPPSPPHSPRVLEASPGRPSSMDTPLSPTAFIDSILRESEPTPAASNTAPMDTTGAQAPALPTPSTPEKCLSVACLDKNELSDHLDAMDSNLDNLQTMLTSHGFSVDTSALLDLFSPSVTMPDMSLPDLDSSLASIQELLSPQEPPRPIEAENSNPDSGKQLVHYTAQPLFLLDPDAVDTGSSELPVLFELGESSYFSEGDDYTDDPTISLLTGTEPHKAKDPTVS

[7] = target: T3, RNA-binding protein pos-1 (Caenorhabditis elegans, UniProt G5EF15); experiment: inhibitors of POS-1/mex-3 RNA binding, dose response, biochemical, fluorescence polarization (AID 1964);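 note: purified POS-1 fused to maltose binding protein made in E. coli; potency of compounds blocking POS-1 binding to fluorescent RNA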
T3 sequence (G5EF15 whole entry): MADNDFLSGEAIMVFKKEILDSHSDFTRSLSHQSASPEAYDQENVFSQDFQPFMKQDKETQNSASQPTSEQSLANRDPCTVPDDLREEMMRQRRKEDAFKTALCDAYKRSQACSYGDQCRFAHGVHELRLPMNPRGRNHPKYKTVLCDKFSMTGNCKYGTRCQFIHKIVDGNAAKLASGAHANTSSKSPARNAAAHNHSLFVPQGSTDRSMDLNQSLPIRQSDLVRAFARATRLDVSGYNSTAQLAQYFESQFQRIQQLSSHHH

[8] = target: Bifunctional protein GlmU (Mycobacterium tuberculosis, UniProt P9WMN3); experiment: Inhibitors of Mycobacterial Glucosamine-1-phosphate acetyl transferase (GlmU). Secondary screen.; set-up: species or system Mycobacterium tuberculosis H37Rv
Bifunctional protein GlmU, sequence (P9WMN3 whole entry, the tested form may be a part): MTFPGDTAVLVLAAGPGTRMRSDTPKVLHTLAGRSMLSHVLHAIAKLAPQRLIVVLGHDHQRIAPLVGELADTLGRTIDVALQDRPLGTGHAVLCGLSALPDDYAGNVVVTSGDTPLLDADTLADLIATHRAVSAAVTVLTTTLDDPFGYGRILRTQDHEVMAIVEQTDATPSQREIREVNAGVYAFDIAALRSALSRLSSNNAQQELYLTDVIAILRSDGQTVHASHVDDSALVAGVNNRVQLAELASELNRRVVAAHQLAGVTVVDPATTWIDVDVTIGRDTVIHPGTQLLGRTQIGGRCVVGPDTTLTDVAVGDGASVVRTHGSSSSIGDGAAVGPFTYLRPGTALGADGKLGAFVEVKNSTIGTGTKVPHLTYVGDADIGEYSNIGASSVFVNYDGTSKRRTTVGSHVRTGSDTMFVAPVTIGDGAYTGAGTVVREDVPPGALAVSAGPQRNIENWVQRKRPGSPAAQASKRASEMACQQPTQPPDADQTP

[9] = target: T4, Carboxy-terminal domain RNA polymerase II polypeptide A small phosphatase 1 (Homo sapiens, UniProt Q9GZU7); experiment: inhibitors of CTDSP1, concentration-response testing, biochemical assay, absorbance-based, actives from ultra-high-throughput screening (AID 540297); type: functional
T4 sequence (Q9GZU7 whole entry): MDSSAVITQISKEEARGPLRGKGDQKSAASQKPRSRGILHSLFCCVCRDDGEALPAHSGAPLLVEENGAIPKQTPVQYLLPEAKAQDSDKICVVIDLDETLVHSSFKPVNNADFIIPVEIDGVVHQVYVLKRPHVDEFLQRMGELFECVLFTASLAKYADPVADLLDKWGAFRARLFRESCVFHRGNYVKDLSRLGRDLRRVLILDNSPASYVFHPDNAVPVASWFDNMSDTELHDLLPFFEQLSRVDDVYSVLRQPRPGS

[10] = target: T5, Histone-lysine N-methyltransferase NSD2 (Homo sapiens, UniProt O96028); type: biochemical
T5 sequence (O96028 whole entry): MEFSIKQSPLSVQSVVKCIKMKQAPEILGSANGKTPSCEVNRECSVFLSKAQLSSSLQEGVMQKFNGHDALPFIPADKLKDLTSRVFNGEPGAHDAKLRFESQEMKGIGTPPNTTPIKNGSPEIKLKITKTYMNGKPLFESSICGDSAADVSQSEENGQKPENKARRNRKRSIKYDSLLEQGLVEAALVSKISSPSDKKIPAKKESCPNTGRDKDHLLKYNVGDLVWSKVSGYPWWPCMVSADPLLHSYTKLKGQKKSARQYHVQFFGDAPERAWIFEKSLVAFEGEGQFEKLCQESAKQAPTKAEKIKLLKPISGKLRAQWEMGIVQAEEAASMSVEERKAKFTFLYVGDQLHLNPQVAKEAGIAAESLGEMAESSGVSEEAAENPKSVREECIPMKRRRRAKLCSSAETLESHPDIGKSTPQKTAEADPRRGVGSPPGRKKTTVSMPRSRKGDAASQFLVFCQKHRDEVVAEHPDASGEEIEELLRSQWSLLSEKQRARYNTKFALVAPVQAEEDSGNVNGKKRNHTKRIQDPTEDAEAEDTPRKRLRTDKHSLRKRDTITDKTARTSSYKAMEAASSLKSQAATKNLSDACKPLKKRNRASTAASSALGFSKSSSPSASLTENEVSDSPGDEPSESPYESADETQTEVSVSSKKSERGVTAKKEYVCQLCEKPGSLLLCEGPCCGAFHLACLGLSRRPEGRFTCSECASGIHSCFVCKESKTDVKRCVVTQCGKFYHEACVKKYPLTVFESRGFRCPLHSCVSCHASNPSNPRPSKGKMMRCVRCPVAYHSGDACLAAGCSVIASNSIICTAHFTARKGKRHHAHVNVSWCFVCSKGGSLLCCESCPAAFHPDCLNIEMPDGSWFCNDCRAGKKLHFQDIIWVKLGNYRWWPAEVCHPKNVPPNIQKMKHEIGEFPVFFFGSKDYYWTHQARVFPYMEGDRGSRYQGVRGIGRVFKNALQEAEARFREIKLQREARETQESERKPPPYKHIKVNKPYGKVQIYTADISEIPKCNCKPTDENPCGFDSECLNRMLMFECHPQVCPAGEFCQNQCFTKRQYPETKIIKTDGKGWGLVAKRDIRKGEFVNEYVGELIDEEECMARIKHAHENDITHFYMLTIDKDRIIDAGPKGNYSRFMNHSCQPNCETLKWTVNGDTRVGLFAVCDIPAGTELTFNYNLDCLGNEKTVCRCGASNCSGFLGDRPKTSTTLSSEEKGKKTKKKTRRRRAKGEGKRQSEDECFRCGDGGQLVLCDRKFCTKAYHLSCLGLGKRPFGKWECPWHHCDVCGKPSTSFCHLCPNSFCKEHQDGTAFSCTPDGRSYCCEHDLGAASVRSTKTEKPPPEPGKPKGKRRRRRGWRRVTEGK

Cytochrome P450 1A2 = target: T6, Cytochrome P450 1A2 (Homo sapiens, UniProt P05177);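 note: PubChem cytochrome P450 panel assay, CYP1A2 panel member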
T6 sequence (P05177 whole entry): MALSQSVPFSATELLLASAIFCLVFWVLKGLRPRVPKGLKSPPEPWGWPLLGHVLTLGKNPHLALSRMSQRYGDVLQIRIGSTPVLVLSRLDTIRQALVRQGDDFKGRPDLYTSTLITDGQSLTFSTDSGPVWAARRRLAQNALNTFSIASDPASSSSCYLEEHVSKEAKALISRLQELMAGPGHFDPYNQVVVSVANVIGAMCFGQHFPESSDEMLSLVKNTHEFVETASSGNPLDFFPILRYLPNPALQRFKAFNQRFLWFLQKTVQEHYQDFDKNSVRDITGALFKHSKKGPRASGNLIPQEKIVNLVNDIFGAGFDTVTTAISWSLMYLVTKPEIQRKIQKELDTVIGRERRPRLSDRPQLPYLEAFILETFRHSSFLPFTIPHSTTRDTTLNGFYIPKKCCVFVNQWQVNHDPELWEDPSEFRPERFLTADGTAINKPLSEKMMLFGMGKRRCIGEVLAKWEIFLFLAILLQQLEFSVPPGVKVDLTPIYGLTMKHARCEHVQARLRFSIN

Cytochrome P450 2C19 = Cytochrome P450 2C19 (Homo sapiens, UniProt P33261); experiment: Cytochrome panel assay with activity outcomes. Panel member name: p450-cyp2c19 Compounds with AC50 equal or less than 10 uM are considered active; type: functional; conditions: read-out: AC50
Cytochrome P450 2C19, sequence (P33261 whole entry): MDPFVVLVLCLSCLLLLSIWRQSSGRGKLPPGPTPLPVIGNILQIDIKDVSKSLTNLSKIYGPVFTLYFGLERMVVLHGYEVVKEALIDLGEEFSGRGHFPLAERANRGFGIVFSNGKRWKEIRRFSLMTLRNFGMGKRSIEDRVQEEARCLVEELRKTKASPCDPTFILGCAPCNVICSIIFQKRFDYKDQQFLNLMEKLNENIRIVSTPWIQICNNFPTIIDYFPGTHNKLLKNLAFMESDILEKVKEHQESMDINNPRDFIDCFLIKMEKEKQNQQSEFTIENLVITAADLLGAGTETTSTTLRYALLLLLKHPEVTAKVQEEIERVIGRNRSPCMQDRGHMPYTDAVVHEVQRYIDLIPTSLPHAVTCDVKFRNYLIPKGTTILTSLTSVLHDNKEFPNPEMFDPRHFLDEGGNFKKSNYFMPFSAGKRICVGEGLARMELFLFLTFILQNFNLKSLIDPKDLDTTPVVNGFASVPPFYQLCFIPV

Cytochrome P450 2C9 = Cytochrome P450 2C9 (Homo sapiens, UniProt P11712)
Cytochrome P450 2C9, sequence (P11712 whole entry): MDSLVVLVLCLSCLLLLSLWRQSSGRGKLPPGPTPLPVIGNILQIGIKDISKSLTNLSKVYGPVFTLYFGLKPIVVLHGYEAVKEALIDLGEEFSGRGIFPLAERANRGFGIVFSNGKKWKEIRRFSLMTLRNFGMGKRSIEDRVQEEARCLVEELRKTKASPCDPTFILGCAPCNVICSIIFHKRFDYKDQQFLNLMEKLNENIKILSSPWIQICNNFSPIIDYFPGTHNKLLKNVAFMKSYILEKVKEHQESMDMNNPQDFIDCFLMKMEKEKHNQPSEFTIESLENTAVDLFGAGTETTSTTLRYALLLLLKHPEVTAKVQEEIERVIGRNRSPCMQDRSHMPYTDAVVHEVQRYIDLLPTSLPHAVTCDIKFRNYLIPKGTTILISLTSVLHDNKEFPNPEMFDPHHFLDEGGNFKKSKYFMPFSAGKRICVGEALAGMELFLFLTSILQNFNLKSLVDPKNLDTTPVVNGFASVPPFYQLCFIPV

Protein-tyrosine kinase 2-beta, sequence (Q14289 whole entry): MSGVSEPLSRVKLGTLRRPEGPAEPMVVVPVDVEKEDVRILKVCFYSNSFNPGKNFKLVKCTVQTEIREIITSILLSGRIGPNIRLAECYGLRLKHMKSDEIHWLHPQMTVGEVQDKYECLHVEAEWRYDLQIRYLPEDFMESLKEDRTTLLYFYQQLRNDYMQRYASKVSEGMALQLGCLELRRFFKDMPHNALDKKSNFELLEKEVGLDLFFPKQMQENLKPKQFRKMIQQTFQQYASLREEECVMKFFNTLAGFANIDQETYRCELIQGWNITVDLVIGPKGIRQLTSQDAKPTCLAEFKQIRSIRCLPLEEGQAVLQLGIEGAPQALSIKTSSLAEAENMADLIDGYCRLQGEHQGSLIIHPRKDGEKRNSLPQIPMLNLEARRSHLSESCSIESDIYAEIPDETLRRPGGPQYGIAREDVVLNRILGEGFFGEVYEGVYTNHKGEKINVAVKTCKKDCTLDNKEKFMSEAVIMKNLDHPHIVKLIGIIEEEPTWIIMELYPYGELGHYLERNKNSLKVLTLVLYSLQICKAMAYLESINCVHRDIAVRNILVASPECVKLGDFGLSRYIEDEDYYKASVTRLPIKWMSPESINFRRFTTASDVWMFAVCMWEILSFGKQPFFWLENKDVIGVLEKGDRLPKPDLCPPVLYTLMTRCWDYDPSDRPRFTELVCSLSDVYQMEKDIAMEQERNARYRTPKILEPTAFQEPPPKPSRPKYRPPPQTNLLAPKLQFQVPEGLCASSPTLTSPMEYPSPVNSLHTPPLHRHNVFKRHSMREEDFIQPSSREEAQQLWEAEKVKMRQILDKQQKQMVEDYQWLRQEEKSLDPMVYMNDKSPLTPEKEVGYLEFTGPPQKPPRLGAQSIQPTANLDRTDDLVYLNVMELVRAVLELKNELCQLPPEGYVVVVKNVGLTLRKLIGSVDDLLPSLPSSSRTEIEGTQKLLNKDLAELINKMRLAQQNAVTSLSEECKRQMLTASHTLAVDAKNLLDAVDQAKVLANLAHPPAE

O=[N+]([O-])c1cccc(/C=C/c2nc3cc([N+](=O)[O-])ccc3[nH]2)c1
IC50 [1]: 20 µM (not active)

C[N+]12CCC(CC1)C(C#N)(N1CCOCC1)C2 (configuration not stated)
IC50 [2]: > 50 µM (not active)
IC50 [3]: 4.57 µM (active)
IC50 [4]: 4.38 µM (active)

COC(=O)COc1cccc2c(=O)n(CC(=O)NCc3ccc(F)cc3)ccc12
IC50 [5]: 1.14 µM (active)

O=C(/C(=N/N=C/c1ccc(O)c(O)c1)c1ccccc1)c1ccccc1
EC50 [6]: > 260 µM (inactive)
IC50 [5]: 1.8 µM (active)

Cc1cc(/C=N/NC(=O)c2cccc(N(C)C)c2)c(C)n1-c1cc(C(=O)O)cc(C(=O)O)c1
EC50 [7]: > 300 µM (not active)
IC50 [8]: 166 µM (active)
IC50 [3]: 9.31 µM (active)
IC50 [4]: 20.6 µM (active)
IC50 [9]: 2.07 µM (active)
AC50 [10]: > 20 µM (inactive)

N#Cc1ccccc1/C=N/Nc1nc(-c2ccccc2)c2cc(Cl)ccc2n1
IC50 [1]: > 69.5 µM (not active)
AC50 (Cytochrome P450 1A2): 7.08 µM (inconclusive)
AC50 (Cytochrome P450 2C19): 25.1 µM (inconclusive)
AC50 (Cytochrome P450 2C9): 2.24 µM (inconclusive)
